*1 amine or outer side, *2 acyl side, *3 side chain or, on linkers, in order; H or OH if unused. Where a SMILES comes first, the peptide text is derived from it. Side-chain parts run from the residue outwards. [ ]: non-standard residue; d: D form. The star is where a group is joined. γGlu = O=C(O)[C@H](CCC(=O)[*:2])N[*:1]; Palmitoyl = CCCCCCCCCCCCCCCC(=O)*; Aib = CC(C)(N)C(=O)O

Assay [1] has as its target T1, endogenous GLP-1 receptors (Mus musculus, UniProt O35659).
T1 construct: Agonistic activity of the test compounds on endogenous GLP-1 receptors; endogenous in cells
T1 sequence (O35659 22-463): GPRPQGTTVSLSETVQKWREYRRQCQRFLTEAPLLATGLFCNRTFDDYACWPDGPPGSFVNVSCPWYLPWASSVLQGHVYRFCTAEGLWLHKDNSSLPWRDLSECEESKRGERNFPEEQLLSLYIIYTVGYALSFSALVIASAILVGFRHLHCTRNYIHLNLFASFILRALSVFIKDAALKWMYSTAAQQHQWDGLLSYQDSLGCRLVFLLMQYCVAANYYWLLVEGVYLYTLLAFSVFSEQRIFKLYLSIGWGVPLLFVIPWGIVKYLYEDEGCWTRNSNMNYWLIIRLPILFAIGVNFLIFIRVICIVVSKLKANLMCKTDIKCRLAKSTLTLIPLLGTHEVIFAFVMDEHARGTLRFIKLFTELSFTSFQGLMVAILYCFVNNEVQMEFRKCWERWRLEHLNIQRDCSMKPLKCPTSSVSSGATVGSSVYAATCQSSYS
As to the kind of experiment: Agonistic activity on endogenous GLP-1 receptor (cAMP, murine insulinoma cell line). Type of assay: cell-based. Particulars: intracellular cAMP, 15 minutes at 26° C.; read-out: EC50 GLP-1R (murine insulinoma cells). Put shortly:
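Murine insulinoma cells were exposed 15 min at 26° C in KRBH with 0.1% DMSO to compound or GLP-1 ([…]), then cAMP was measured by AlphaScreen against a standard curve, in quadruplicate. pEC50 came from curve fits; % CTL was normalised to the maximal GLP-1 cAMP response.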

Assay [2] is described as follows: Sub-chronic effects on adiposity/body weight in diet-induced obese mice. The note with it: DIO mice, 5 nmol/kg s.c. twice daily for 31 days. The format is in vivo, C57BL/6J mice. The protocol:
Male C57BL/6J mice (Taconic A/S, Denmark) at an age of 5 weeks were maintained on a 12:12 hour light-dark cycle on a high-fat diet (60% of total energy from fat, D12492, Research Diet Inc.) for 20 weeks. All mice (housed 2 per cage) were then mock-treated for a week to acclimatize the animals to handling and injections. Subsequently, the mice were stratified according to body fat mass (measured by magnetic resonance technique) and body weight into 9 groups (n=9-12). Animals were thereafter treated twice daily with subcutaneous injections (5 ml/kg) of vehicle (25 mM phosphate buffer, pH 7.4) or test substances (5 nmol/kg per administration, in equivalent amount of vehicle) for a total of 31 days. The daily injections were given at the start and at the end of the light phase. Body weight, food and water intake were determined daily throughout the study. The data are presented in Table 6 as mean body weight change±S.E.M. S.E.M. is defined as standard error of the mean and was calculated using the formula: S.E.M.=SD/square root (n), where SD is the standard deviation and n the number of observations (in this case animals/group).
Statistical analyses were performed using Graph Pad Prism version 5. The measured parameters were compared using one-way ANOVA followed by Dunnett's multiple comparison test. Differences were considered statistically significant at p<0.05.

The target of assay [3] is T2, endogenous glucagon receptor (Rattus norvegicus, UniProt P30082).
T2 construct: Agonistic activity of the test compounds on endogenous glucagon receptor; endogenous in cells; host or cells: primary rat hepatocytes
As to the kind of experiment: Agonistic activity on endogenous glucagon receptor (glycogen synthesis rate in primary rat hepatocytes). Type of assay: cell-based. Particulars: inhibition of glycogen synthesis rate, 3 hours, read-out: EC50 GLP-1R Rat hepat. Put shortly:
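Primary rat hepatocytes (40,000 cells/well, cultured 24 h) incubated 3 h with compound in KRBH buffer with 0.1% BSA, 22.5 mM glucose and D-[U14C]glucose. 14C incorporated into precipitated glycogen counted, background-subtracted and expressed as % of 0.1% DMSO vehicle (100% CTL). pEC50 from cpm versus log concentration; agonism lowers glycogen synthesis.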

T2 sequence (P30082 27-485): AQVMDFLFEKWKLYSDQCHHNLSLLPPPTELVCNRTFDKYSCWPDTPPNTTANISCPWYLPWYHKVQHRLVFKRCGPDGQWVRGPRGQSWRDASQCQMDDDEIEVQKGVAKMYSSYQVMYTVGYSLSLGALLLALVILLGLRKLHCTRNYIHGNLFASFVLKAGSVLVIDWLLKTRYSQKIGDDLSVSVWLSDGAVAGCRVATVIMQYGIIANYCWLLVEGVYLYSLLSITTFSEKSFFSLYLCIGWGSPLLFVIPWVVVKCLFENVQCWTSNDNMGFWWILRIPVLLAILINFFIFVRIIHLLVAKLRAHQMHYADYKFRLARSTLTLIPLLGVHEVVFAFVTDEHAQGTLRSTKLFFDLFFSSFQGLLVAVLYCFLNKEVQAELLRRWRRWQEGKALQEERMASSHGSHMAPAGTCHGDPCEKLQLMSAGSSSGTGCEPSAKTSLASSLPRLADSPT

Usually EC50 stands for the concentration giving half of the maximal effect. With `CCCCCCCCCCCCCCCC(=O)N[C@@H](CCC(=O)NCCCC[C@H](NC(=O)[C@H](CO)NC(=O)[C@H](CC(=O)O)NC(=O)[C@H](CC(C)C)NC(=O)[C@H](Cc1ccc(O)cc1)NC(=O)[C@H](CCCCN)NC(=O)[C@H](CO)NC(=O)[C@H](Cc1ccc(O)cc1)NC(=O)[C@H](CC(=O)O)NC(=O)[C@H](CO)NC(=O)[C@@H](NC(=O)[C@H](Cc1ccccc1)NC(=O)[C@@H](NC(=O)CNC(=O)[C@H](CCC(N)=O)NC(=O)[C@H](CO)NC(=O)[C@@H](N)Cc1c[nH]cn1)[C@@H](C)O)[C@@H](C)O)C(=O)N[C@@H](C)C(=O)N[C@@H](C)C(=O)N[C@@H](Cc1c[nH]cn1)C(=O)N[C@@H](CC(=O)O)C(=O)N[C@@H](Cc1ccccc1)C(=O)N[C@H](C(=O)N[C@@H](CCC(=O)O)C(=O)N[C@@H](Cc1c[nH]c2ccccc12)C(=O)N[C@@H](CC(C)C)C(=O)N[C@@H](CC(C)C)C(=O)N[C@@H](CO)C(=O)N[C@@H](C)C(=O)O)C(C)C)C(=O)O` [Compound 2, H-HSQGTFTSDYSKYLDS-K(Hexadecanoyl-isoGlu)-AAHDFVEWLLSA-OH] (H-HSQGTFTSDYSKYLDSK([γGlu-Palmitoyl])AAHDFVEWLLSA-OH), the EC50 was found to be 1.41 nM in assay [1] and 0.43 nM in assay [3]. Moreover, the “Mean body weight change” value in assay [2] is −5.1%.

For the compound `CCCCCCCCCCCCCCCC(=O)N[C@@H](CCC(=O)NCCCC[C@H](NC(=O)[C@H](CO)NC(=O)[C@H](CC(=O)O)NC(=O)[C@H](CC(C)C)NC(=O)[C@H](Cc1ccc(O)cc1)NC(=O)[C@H](CCCCN)NC(=O)[C@H](CO)NC(=O)[C@H](Cc1ccc(O)cc1)NC(=O)[C@H](CC(=O)O)NC(=O)[C@H](CO)NC(=O)[C@@H](NC(=O)[C@H](Cc1ccccc1)NC(=O)[C@@H](NC(=O)CNC(=O)[C@H](CCC(N)=O)NC(=O)[C@H](CO)NC(=O)[C@@H](N)Cc1c[nH]cn1)[C@@H](C)O)[C@@H](C)O)C(=O)N[C@@H](C)C(=O)N[C@@H](C)C(=O)N[C@@H](CCC(=O)O)C(=O)N[C@@H](CC(=O)O)C(=O)N[C@@H](Cc1ccccc1)C(=O)N[C@H](C(=O)N[C@@H](CCC(=O)O)C(=O)N[C@@H](Cc1c[nH]c2ccccc12)C(=O)N[C@@H](CC(C)C)C(=O)N[C@@H](CC(C)C)C(=O)N[C@@H](CCCNC(=N)N)C(=O)N[C@@H](C)C(N)=O)C(C)C)C(=O)O` [Compound 7, H-HSQGTFTSDYSKYLDS-K(Hexadecanoyl-isoGlu)-AAEDFVEWLLRA-NH2] (H-HSQGTFTSDYSKYLDSK([γGlu-Palmitoyl])AAEDFVEWLLRA-NH2), the EC50 was determined as 0.84 nM in assay [1] and 1.92 nM in assay [3]. For the same compound, the “Mean body weight change” value in assay [2] was −8.7%.

For the compound `CCCCCCCCCCCCCCCC(=O)N[C@@H](CCC(=O)NCCCC[C@H](NC(=O)[C@H](CCC(=O)O)NC(=O)[C@H](CC(=O)O)NC(=O)[C@H](CC(C)C)NC(=O)[C@H](Cc1ccc(O)cc1)NC(=O)[C@H](CCCCN)NC(=O)[C@H](CO)NC(=O)[C@H](Cc1ccc(O)cc1)NC(=O)[C@H](CC(=O)O)NC(=O)[C@H](CO)NC(=O)[C@@H](NC(=O)[C@H](Cc1ccccc1)NC(=O)[C@@H](NC(=O)CNC(=O)[C@H](CCC(N)=O)NC(=O)[C@H](CO)NC(=O)[C@@H](N)Cc1c[nH]cn1)[C@@H](C)O)[C@@H](C)O)C(=O)N[C@@H](C)C(=O)N[C@@H](C)C(=O)N[C@@H](Cc1c[nH]cn1)C(=O)N[C@@H](CCC(=O)O)C(=O)N[C@@H](Cc1ccccc1)C(=O)N[C@H](C(=O)N[C@@H](CCC(=O)O)C(=O)N[C@@H](Cc1c[nH]c2ccccc12)C(=O)N[C@@H](CC(C)C)C(=O)N[C@@H](CCC(=O)O)C(=O)N[C@@H](CO)C(=O)N[C@@H](C)C(N)=O)C(C)C)C(=O)O` [Compound 10, H-HSQGTFTSDYSKYLDE-K(Hexadecanoyl-isoGlu)-AAHEFVEWLESA-NH2] (H-HSQGTFTSDYSKYLDEK([γGlu-Palmitoyl])AAHEFVEWLESA-NH2), the EC50 in assay [1] came out at 0.33 nM; in assay [3], 0.04 nM.

Regarding `CCCCCCCCCCCCCCCC(=O)N[C@@H](CCC(=O)NCCCC[C@H](NC(=O)[C@H](CO)NC(=O)[C@H](CC(=O)O)NC(=O)[C@H](CC(C)C)NC(=O)[C@H](Cc1ccc(O)cc1)NC(=O)[C@H](CCCNC(=N)N)NC(=O)[C@H](CO)NC(=O)[C@H](Cc1ccc(O)cc1)NC(=O)[C@H](CC(=O)O)NC(=O)[C@H](CO)NC(=O)[C@@H](NC(=O)[C@H](Cc1ccccc1)NC(=O)[C@@H](NC(=O)CNC(=O)[C@H](CCC(N)=O)NC(=O)[C@H](CO)NC(=O)[C@@H](N)Cc1c[nH]cn1)[C@@H](C)O)[C@@H](C)O)C(=O)N[C@@H](C)C(=O)N[C@@H](C)C(=O)N[C@@H](Cc1c[nH]cn1)C(=O)N[C@@H](CC(=O)O)C(=O)N[C@@H](Cc1ccccc1)C(=O)N[C@H](C(=O)N[C@@H](CCC(=O)O)C(=O)N[C@@H](Cc1c[nH]c2ccccc12)C(=O)N[C@@H](CC(C)C)C(=O)N[C@@H](CC(C)C)C(=O)N[C@@H](CO)C(=O)N[C@@H](C)C(N)=O)C(C)C)C(=O)O` [Compound 12, H-HSQGTFTSDYSRYLDS-K(Hexadecanoyl-isoGlu)-AAHDFVEWLLSA-NH2] (H-HSQGTFTSDYSRYLDSK([γGlu-Palmitoyl])AAHDFVEWLLSA-NH2), the figures for the EC50 in assay [1] and in assay [3] were 1.62 nM and 0.24 nM, respectively.

As to `CCCCCCCCCCCCCCCC(=O)N[C@@H](CCC(=O)NCCCC[C@H](NC(=O)[C@H](CO)NC(=O)[C@H](CC(=O)O)NC(=O)[C@H](CC(C)C)NC(=O)[C@H](Cc1ccc(O)cc1)NC(=O)[C@H](CCCCN)NC(=O)[C@H](CO)NC(=O)[C@H](Cc1ccc(O)cc1)NC(=O)[C@H](CC(=O)O)NC(=O)[C@H](CO)NC(=O)[C@@H](NC(=O)[C@H](Cc1ccccc1)NC(=O)[C@@H](NC(=O)CNC(=O)[C@H](CCC(N)=O)NC(=O)C(C)(C)NC(=O)[C@@H](N)Cc1c[nH]cn1)[C@@H](C)O)[C@@H](C)O)C(=O)N[C@@H](C)C(=O)N[C@@H](C)C(=O)N[C@@H](Cc1c[nH]cn1)C(=O)N[C@@H](CC(=O)O)C(=O)N[C@@H](Cc1ccccc1)C(=O)N[C@H](C(=O)N[C@@H](CCC(=O)O)C(=O)N[C@@H](Cc1c[nH]c2ccccc12)C(=O)N[C@@H](CC(C)C)C(=O)N[C@@H](CC(C)C)C(=O)N[C@@H](CO)C(=O)N[C@@H](C)C(=O)O)C(C)C)C(=O)O` [Compound 13, H-H-Aib-QGTFTSDYSKYLDS-K(Hexadecanoyl-isoGlu)-AAHDFVEWLLSA-OH], the EC50 stood at 1.06 nM in assay [1] and 0.67 nM in assay [3].

As for `CCCCCCCCCCCCCCCC(=O)N[C@@H](CCC(=O)NCCCC[C@H](NC(=O)[C@H](CCC(=O)O)NC(=O)[C@H](CC(=O)O)NC(=O)[C@H](CC(C)C)NC(=O)[C@H](Cc1ccc(O)cc1)NC(=O)[C@H](CCCCN)NC(=O)[C@H](CO)NC(=O)[C@H](Cc1ccc(O)cc1)NC(=O)[C@H](CC(=O)O)NC(=O)[C@H](CO)NC(=O)[C@@H](NC(=O)[C@H](Cc1ccccc1)NC(=O)[C@@H](NC(=O)CNC(=O)[C@H](CCC(N)=O)NC(=O)C(C)(C)NC(=O)[C@@H](N)Cc1c[nH]cn1)[C@@H](C)O)[C@@H](C)O)C(=O)N[C@@H](CCCNC(=N)N)C(=O)N[C@@H](C)C(=O)N[C@@H](CCCCN)C(=O)N[C@@H](CC(=O)O)C(=O)N[C@@H](Cc1ccccc1)C(=O)N[C@H](C(=O)N[C@@H](CCC(=O)O)C(=O)N[C@@H](Cc1c[nH]c2ccccc12)C(=O)N[C@@H](CC(C)C)C(=O)N[C@@H](CC(C)C)C(=O)N[C@@H](CO)C(=O)N[C@@H](C)C(=O)O)[C@@H](C)CC)C(=O)O` [Compound 14, H-H-Aib-QGTFTSDYSKYLDE-K(Hexadecanoyl-isoGlu)-RAKDFIEWLLSA-OH] (H-H[Aib]QGTFTSDYSKYLDEK([γGlu-Palmitoyl])RAKDFIEWLLSA-OH), the EC50 in assay [1] came out at 0.72 nM; in assay [3] it was 0.1 nM. The “Mean body weight change” value in assay [2] is listed as −9.5%.

For the origin of these results see patent publication US10253081B2, “Glucagon analogues” (Zealand Pharma A/S, priority 2012, dated 2019).
